Reference: US20210353784A1, “DETECTING AND TREATING CANCERS USING CELL PENETRANT MTP53-OLIGOMERIZATION-DOMAIN PEPTIDE” (priority 2020, published 2021)
Ends that are not written are not given here.

Test system: MDA-MB-468 and MCF7 cells
Experiment: Live cell imaging staining with Cy5 conjugated first and second-generation TAT-mtp53ODP
Type: cell-based, Human
Settings: 500 nM, 4 h incubation
Procedure: FIG. 7 quantifies the results of live cell imaging staining of MDA-MB-468 and MCF7 cells with 4 h incubation of 500 nM Cy5 conjugated first (TAT-mtp53ODP-35mer, SEQ ID NO: 3) and second-generation (TAT-mtp53ODP-27mer (SEQ ID NO: 7) and TAT-mtp53ODP-37mer (SEQ ID NO: 8)) after 4 h incubation. Cells were imaged by confocal microscopy. Quantification of Cy5 conjugated TAT-mtp53ODP uptake in MDA-MB-468 cells and MCF7 cells was conducted by Nikon Element analysis. […] Three independent experiments with biological replicate were performed. Statistical analyses were conducted in Graphpad Prism 9. Results are expressed as mean+SEM. Statistical significance for hypothesis testing was performed by Student's t-test. The following format was used to assign significance based on P-value: *p-value ≤0.05, ** p-value […] p-value ≤0.001.
Live cell imaging staining was also performed on second-generation peptides based on Cy5-conjugated SEQ ID NO: 7 and SEQ ID NO: 8. FIG. 7 depicts the results of live cell imaging staining of MDA-MB-468 and MCF7 cells with 4 h incubation of 500 nM Cy5 conjugated first (TAT-mtp53ODP-35mer, SEQ ID NO: 3) and second-generation (TAT-mtp53ODP-27mer (SEQ ID NO: 7) and Cy5-conjugated TAT-mtp53ODP-37mer (SEQ ID NO: 8)) after 4 h incubation. Cells were imaged by confocal microscopy. A scrambled peptide was included as a control. […]

Row | Sequence | activity relative to TAT-mtp53ODP-35mer (SEQ ID NO: 3)
1 | GRKKRRQRRGEYFTLQIRGRERFEMFR (also: Cy5 conjugate) [TAT-mtp53ODP-27mer, Cy5 conjugated second-generation TAT-mtp53ODP peptide] | reduced activity
2 | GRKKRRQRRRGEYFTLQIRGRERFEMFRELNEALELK (also: Cy5 conjugate) [TAT-mtp53ODP-37mer, Cy5 conjugated second-generation TAT-mtp53ODP peptide] | enhanced activity
